Legend:
[1] = target: NET (norepinephrine transporter) (Homo sapiens, UniProt P23975); assay: PDSP radioligand binding, norepinephrine transporter; conditions: 10 µM, quadruplicate; read-out: NET Primary Screen inhibition of binding
Excerpt: (§1) [17] and http://pdsp.med.unc.edu/UNC-CH%20Protocol%20Book.pdf.

Sigma1 = Sigma1 (Homo sapiens, UniProt Q99720); assay: PDSP radioligand binding, Sigma1; conditions: for inhibition at 10 µM: quadruplicate, read-out: Sigma1 Primary Screen inhibition of binding
Sigma1, sequence (Q99720 whole entry): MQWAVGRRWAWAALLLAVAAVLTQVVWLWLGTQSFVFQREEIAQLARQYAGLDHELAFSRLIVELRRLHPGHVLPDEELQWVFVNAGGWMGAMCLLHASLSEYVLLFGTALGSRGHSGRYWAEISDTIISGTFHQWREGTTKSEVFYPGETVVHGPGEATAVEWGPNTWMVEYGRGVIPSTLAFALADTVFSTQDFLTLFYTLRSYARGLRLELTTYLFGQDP
Excerpt: as §1

Sigma2 = Sigma2 (Homo sapiens, UniProt Q5BJF2); assay: PDSP radioligand binding, Sigma2; conditions: for Ki: Table 2
Sigma2, sequence (Q5BJF2 whole entry): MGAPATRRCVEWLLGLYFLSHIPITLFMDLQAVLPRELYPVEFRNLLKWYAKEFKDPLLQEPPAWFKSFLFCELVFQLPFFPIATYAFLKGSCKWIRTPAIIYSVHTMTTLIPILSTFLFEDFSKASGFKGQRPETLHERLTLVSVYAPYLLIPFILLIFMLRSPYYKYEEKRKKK
Excerpt: as §1

[2] = target: NMDA Receptor (MK-801 binding site); assay: PDSP radioligand binding, NMDA receptor; conditions: Table 2; for Ki: read-out: NMDA (Ki) (converted)
Excerpt: as §1

[3] = target: SERT (serotonin transporter) (Homo sapiens, UniProt P31645); assay: biochemical; assay type: binding
SERT (serotonin transporter), sequence (P31645 whole entry, species assumed): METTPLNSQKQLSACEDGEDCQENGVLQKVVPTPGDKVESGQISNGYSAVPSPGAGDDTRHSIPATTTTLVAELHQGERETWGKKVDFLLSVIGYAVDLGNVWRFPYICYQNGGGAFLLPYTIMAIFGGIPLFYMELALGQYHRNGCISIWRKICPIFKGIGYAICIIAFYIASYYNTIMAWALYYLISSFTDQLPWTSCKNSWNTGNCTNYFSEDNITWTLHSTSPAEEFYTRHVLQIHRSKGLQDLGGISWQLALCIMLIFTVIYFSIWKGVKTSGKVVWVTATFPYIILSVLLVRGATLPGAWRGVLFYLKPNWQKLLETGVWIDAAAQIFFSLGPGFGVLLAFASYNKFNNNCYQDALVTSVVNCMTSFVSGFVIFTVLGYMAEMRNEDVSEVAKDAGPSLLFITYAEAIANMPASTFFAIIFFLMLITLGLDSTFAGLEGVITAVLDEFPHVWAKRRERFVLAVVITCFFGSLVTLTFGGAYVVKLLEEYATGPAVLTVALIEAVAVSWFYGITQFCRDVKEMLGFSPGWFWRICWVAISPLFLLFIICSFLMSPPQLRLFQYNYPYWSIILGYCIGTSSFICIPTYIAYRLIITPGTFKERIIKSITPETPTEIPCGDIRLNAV
Excerpt: as §1

[4] = tested on: dopamine transporter (DAT); conditions: cited from earlier work

NET (norepinephrine transporter), sequence (P23975 whole entry, species assumed): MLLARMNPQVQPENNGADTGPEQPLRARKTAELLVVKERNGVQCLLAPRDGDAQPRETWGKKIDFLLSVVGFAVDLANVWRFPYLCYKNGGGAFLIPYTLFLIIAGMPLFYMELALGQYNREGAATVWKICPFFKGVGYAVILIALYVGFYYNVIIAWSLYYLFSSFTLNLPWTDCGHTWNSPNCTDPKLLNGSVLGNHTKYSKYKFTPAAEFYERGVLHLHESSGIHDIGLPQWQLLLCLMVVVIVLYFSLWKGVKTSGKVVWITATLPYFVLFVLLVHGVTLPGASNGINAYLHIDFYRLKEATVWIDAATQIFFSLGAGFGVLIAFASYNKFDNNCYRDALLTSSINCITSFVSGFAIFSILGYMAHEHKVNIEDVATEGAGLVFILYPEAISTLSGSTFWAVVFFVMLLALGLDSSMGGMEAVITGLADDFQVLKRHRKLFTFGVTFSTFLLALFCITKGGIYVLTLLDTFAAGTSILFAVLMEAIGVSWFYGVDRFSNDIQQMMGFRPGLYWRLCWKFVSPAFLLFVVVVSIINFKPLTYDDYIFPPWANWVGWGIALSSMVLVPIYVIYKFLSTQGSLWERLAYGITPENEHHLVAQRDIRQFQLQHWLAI

SMILES	inhibition at 10 µM [1]	inhibition at 10 µM (Sigma1)	effect on sigma1 receptors (Sigma1; tested at 10 µM)	inhibition at 10 µM (Sigma2; 10 µM, quadruplicate, read-out: Sigma2 Primary Screen inhibition of binding)	effect on sigma2 receptors (Sigma2; tested at 10 µM)	NMDA pKi +/− SD [2]	Ki [2]	affinity for the serotonin transporter (SERT), in words [3]	Ki ([3]; Table 2)	Ki (Sigma1)	Ki (Sigma2; Sigma2 (Ki, nM))	Ki (Sigma2; Sigma2 pKi +/− SD)	potency at DAT, in words [4]
CNC1(c2ccccc2Cl)CCCCC1=O (racemic) [Ketamine, (RS)-2-(2-chlorophenyl)-2-(methylamino)cyclohexanone, reference compound]	< 50%	< 50%	no significant effect	< 50%	no significant effect	–	–	–	–	–	–	–	–
CCNC1(c2cccc(OC)c2)CCCCC1 [3-MeO-PCE, N-ethyl-1-(3-methoxyphenyl)cyclohexanamine]	< 50%	–	–	–	–	7.22±0.08	0.061 µM	submicromolar affinities	0.115 µM	4.52 µM	525 nM	490 nM	–
c1ccc(C2(N3CCCCC3)CCCCC2)cc1 [Phencyclidine, reference compound]	< 50%	< 50%	–	–	–	–	0.059 µM	–	–	–	136 nM	151 nM	submicromolar potency

Source: publication PMC3602154 (PLoS ONE, 2013)
